Assay results reported in patent US20240336591A1, “ORGANIC PYRIDINE-PYRAZOLE COMPOUNDS AND THEIR USES” (priority 2021, published 2024).
Where two headings read alike, the source gives them in different places.

Legend:
[1] = target: T1, Human PDE10A2 (Homo sapiens (Human), UniProt Q9Y233); assay: Cell based human PDE10A activity assay - cAMP HTRF assay in HEK 293 rhPDE10A2 cell line
Description: Semi log compound dilutions starting at a final concentration of 10 μM were dispensed into a white 384 well plate, alongside DMSO and an Inhibited control using the Tecan D300e digital dispenser. HEK 293 cells overexpressing recombinant human PDE10A2 were seeded on top of the compounds at 2500 cells/well in a volume 5 μL/well. The plate was incubated at room temperature for 60 minutes. To induce endogenous cAMP, 5 μL/well of Forskolin at a final assay concentration of 10 μM was added to the plate. The plate was incubated at room temperature for a further 45 minutes. cAMP HTRF detection reagents were added, and the plate was incubated for 60 minutes at room temperature. […] Data was analysed using a 4-parameter fit.

[2] = target: T1, Human PDE10A2; assay: Biochemical human PDE10A activity assay - PDE10A2 Phosphate Sensor Assay; conditions: cGMP 3 μM substrate, PDE10A2 0.25 nM
Description: Biochemical Human PDE10A Activity Assay—PDE10A2 Phosphate Sensor Assay
Semi Log compound dilutions starting at a final concentration of 50 μM were dispensed into a black 384 well plate alongside, DMSO and an Inhibited control using the Echo Acoustic dispenser. […] Data was analysed using a 4-parameter fit.

[3] = Forskolin 10 μM, read-out: cAMP HTRF Assay in HEK 293 rhPDE10A2 cell line (pIC50) (converted)

T1 sequence (Q9Y233 267-1055): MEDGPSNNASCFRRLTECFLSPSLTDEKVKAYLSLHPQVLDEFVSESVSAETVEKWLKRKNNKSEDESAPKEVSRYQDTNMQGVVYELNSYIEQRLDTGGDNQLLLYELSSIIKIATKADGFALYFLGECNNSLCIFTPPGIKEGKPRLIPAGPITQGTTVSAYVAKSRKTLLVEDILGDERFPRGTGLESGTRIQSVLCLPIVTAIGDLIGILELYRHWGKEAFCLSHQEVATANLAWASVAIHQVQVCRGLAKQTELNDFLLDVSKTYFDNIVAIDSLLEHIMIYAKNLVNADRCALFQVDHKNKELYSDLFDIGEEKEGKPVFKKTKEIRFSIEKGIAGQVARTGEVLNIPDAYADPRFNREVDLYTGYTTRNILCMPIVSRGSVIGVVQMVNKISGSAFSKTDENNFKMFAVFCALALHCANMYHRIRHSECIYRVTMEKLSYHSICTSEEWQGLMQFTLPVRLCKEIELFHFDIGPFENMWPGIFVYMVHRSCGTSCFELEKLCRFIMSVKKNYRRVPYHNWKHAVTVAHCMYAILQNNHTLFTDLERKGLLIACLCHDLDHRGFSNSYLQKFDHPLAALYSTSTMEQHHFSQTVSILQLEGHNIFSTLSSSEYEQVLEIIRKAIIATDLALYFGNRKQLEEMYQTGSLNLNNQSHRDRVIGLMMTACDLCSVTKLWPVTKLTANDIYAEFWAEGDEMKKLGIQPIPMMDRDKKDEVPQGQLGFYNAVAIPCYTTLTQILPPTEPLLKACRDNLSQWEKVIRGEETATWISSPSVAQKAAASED

Structure (SMILES) | IC50 [1, 3] [nM] | PDE10A2 Phosphate Sensor Enzyme Assay (pIC50) [2] | IC50 [1] [nM]
Cn1ncc(-c2ccncc2)c1-c1ccc(OCc2cc(C(=O)O)c3ccccc3n2)cc1 [Example 1, 2-[[4-[2-Methyl-4-(4-pyridyl)pyrazol-3-yl]phenoxy]methyl]quinoline-4-carboxylic acid] | 1.95 | 9.43 | 
Cn1ncc(-c2ccncc2)c1-c1ccc(OCc2nc3ccccc3cc2C(=O)O)cc1 [Example 2, 2-[[4-[2-Methyl-4-(4-pyridyl)pyrazol-3-yl]phenoxy]methyl]quinoline-3-carboxylic acid] | 0.117 | 9.69 | 
CS(=O)(=O)n1cc(-c2ccncc2)c(-c2ccc(OCc3ccc4ccccc4n3)cc2)n1 [Example 6, 2-[[4-[1-Methylsulfonyl-4-(4-pyridyl)pyrazol-3-yl]phenoxy]methyl]quinoline] | 64.6 | 8.36 | 
Cc1cccc2nc(COc3ccc(-c4nn(C)cc4-c4ccncc4)cc3)c(C(=O)N=S(C)(C)=O)cc12 [Example 7, N-[Dimethyl(oxo)-λ6-sulfanylidene]-5-methyl-2-[[4-[1-methyl-4-(4-pyridyl)pyrazol-3-yl]phenoxy]methyl]quinoline-3-carboxamide] | 1.48 | 9.65 | 
CS(C)(=O)=NC(=O)c1cc(COc2ccc(-c3nn(CC(F)(F)F)cc3-c3ccncc3)cc2)nc2ccccc12 [Example 8, N-[Dimethyl(oxo)-λ6-sulfanylidene]-2-[[4-[4-(4-pyridyl)-1-(2,2,2-trifluoroethyl)pyrazol-3-yl]phenoxy]methyl]quinoline-4-carboxamide] | 0.38 | 10.2 | 
CS(C)(=O)=NC(=O)c1cc(COc2ccc(-c3n[nH]cc3-c3ccncc3)cc2)nc2ccccc12 [Example 12, N-[Dimethyl(oxo)-λ6-sulfanylidene]-2-[[4-[4-(4-pyridyl)-1H-pyrazol-3-yl]phenoxy]methyl]quinoline-4-carboxamide] | 5.01 | 9.84 | 
Cn1cc(-c2ccncc2)c(-c2ccc(OCc3nc4ccccc4cc3C(=O)N=S3(=O)CCCC3)cc2)n1 [Example 13, 2-[[4-[1-Methyl-4-(4-pyridyl)pyrazol-3-yl]phenoxy]methyl]-N-(1-oxothiolan-1-ylidene)quinoline-3-carboxamide] | 0.977 | 9.86 | 
Cn1cc(-c2ccncc2)c(-c2ccc(OCc3nc4ccccc4cc3C(=O)N=S(C)(=O)C3CC3)cc2)n1 (centres unmarked) [Example 14, N-(Cyclopropyl-methyl-oxo-λ6-sulfanylidene)-2-[[4-[1-methyl-4-(4-pyridyl)pyrazol-3-yl]phenoxy]methyl]quinoline-3-carboxamide] | 0.676 | 10.0 | 
CN(C(=O)c1cc(COc2ccc(-c3nn(C)cc3-c3ccncc3)cc2)nc2ccccc12)S(C)(=O)=O [Example 16, N-Methyl-2-[[4-[1-methyl-4-(4-pyridyl)pyrazol-3-yl]phenoxy]methyl]-N-methylsulfonyl-quinoline-4-carboxamide] | 0.603 | 9.87 | 
Cn1cc(-c2ccncc2)c(-c2ccc(OCc3nc4cc(F)ccc4cc3C(=O)N=S(C)(C)=O)cc2)n1 [Example 21, N-[Dimethyl(oxo)-λ6-sulfanylidene]-7-fluoro-2-[[4-[1-methyl-4-(4-pyridyl)pyrazol-3-yl]phenoxy]methyl]quinoline-3-carboxamide] | 550 | 8.32 | 
Cn1cc(-c2ccncc2)c(-c2ccc(OCc3nc4ccc(F)cc4cc3C(=O)N=S(C)(C)=O)cc2)n1 [Example 22, N-[Dimethyl(oxo)-λ6-sulfanylidene]-6-fluoro-2-[[4-[1-methyl-4-(4-pyridyl)pyrazol-3-yl]phenoxy]methyl]quinoline-3-carboxamide] | 17.4 | 9.49 | 
Cn1cc(-c2ccncc2)c(-c2ccc(OCc3nc4cccc(F)c4cc3C(=O)N=S(C)(C)=O)cc2)n1 [Example 23, N-[Dimethyl(oxo)-λ6-sulfanylidene]-5-fluoro-2-[[4-[1-methyl-4-(4-pyridyl)pyrazol-3-yl]phenoxy]methyl]quinoline-3-carboxamide] | 3.98 | 9.59 | 
Cc1ccc2nc(COc3ccc(-c4nn(C)cc4-c4ccncc4)cc3)c(C(=O)N=S(C)(C)=O)cc2c1 [Example 24, N-[Dimethyl(oxo)-λ6-sulfanylidene]-6-methyl-2-[[4-[1-methyl-4-(4-pyridyl)pyrazol-3-yl]phenoxy]methyl]quinoline-3-carboxamide] | 331 |  | 
Cn1cc(-c2ccncc2)c(-c2ccc(OCc3cc(C(=O)N=S(C)(C)=O)c4cc(F)ccc4n3)cc2)n1 [Example 25, N-[Dimethyl(oxo)-λ6-sulfanylidene]-6-fluoro-2-[[4-[1-methyl-4-(4-pyridyl)pyrazol-3-yl]phenoxy]methyl]quinoline-4-carboxamide] | 3.63 | 9.41 | 
Cn1cc(-c2ccncc2)c(-c2ccc(OCc3cc(C(=O)N=S(C)(C)=O)c4c(Cl)cccc4n3)cc2)n1 [Example 26, 5-Chloro-N-[Dimethyl(oxo)-λ6-sulfanylidene]-2-[[4-[1-methyl-4-(4-pyridyl)pyrazol-3-yl]phenoxy]methyl]quinoline-4-carboxamide] | 42.7 | 9.13 | 
CCn1cc(-c2ccncc2)c(-c2ccc(OCc3cc(C(=O)N=S(C)(C)=O)c4ccccc4n3)cc2)n1 [Example 27, N-[Dimethyl(oxo)-λ6-sulfanylidene]-2-[[4-[1-ethyl-4-(4-pyridyl)pyrazol-3-yl]phenoxy]methyl]quinoline-4-carboxamide] | 0.537 | 10.2 | 
CS(C)(=O)=NC(=O)c1cc(COc2ccc(-c3nn(C4CC4)cc3-c3ccncc3)cc2)nc2ccccc12 [Example 28, 2-[[4-[1-Cyclopropyl-4-(4-pyridyl)pyrazol-3-yl]phenoxy]methyl]-N-[dimethyl(oxo)-λ6-sulfanylidene]quinoline-4-carboxamide] | 2.75 | 9.42 | 
O=C(O)c1cc2ccccc2nc1COc1ccc(-c2n[nH]cc2-c2ccncc2)cc1 [Example 29, 2-[[4-[4-(4-Pyridyl)-1H-pyrazol-3-yl]phenoxy]methyl]quinoline-3-carboxylic acid] | 0.347 | 10 | 
O=C(O)c1cc(COc2ccc(-c3n[nH]cc3-c3ccncc3)cc2)nc2ccccc12 [Example 30, 2-[[4-[4-(4-Pyridyl)-1H-pyrazol-3-yl]phenoxy]methyl]quinoline-4-carboxylic acid] | 0.138 | 10.2 | 
CS(C)(=O)=NC(=O)c1cc2ccccc2nc1COc1ccc(-c2n[nH]cc2-c2ccncc2)cc1 [Example 31, N-[Dimethyl(oxo)-λ6-sulfanylidene]-2-[[4-[4-(4-pyridyl)-1H-pyrazol-3-yl]phenoxy]methyl]quinoline-3-carboxamide] |  | 10 | 13.8
CS(C)(=O)=Nc1cc(COc2ccc(-c3n[nH]cc3-c3ccncc3)cc2)nc2ccccc12 [Example 32, Dimethyl-oxo-[[2-[[4-[4-(4-pyridyl)-1H-pyrazol-3-yl]phenoxy]methyl]-4-quinolyl]imino]-λ6-sulfane] | 46.8 | 10.3 | 
